According to the supplement of paper PMC10307832:

The cell lines below were run with C[C@@H](C(=O)N[C@@H](C1CCCCC1)C(=O)N2CCC[C@H]2C(=O)N[C@@H]3[C@@H](CC4=CC=CC=C34)OCC#CC#CCO[C@@H]5CC6=CC=CC=C6[C@@H]5NC(=O)[C@@H]7CCCN7C(=O)[C@H](C8CCCCC8)NC(=O)[C@H](C)NC)NC [AZD5582] + Cc1nc(Nc2ncc(C(=O)Nc3c(C)cccc3Cl)s2)cc(N2CCN(CCO)CC2)n1 [Dasatinib] (partner 0.075 µM) (assay: relative viability (nuclei count vs DMSO), 5 days (fraction); higher = more cells survive). Details: first compound 0.001581 µM.
How it was run: (§1)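 Cells from lung cancer lines were seeded into 1536-well plates and, one day later, dosed by pin tool. Treatments were either a single drug or a fixed dose of an anchor drug with five library-drug doses (not always all listed) in √10 steps. After 5 days, nuclei were stained in a one-step fixation (final 0.05% Triton X-100, 1% formaldehyde, 1 ug/ml Hoechst) and counted on 4× images, and relative viability is the treated-to-vehicle nuclei ratio, as the median of duplicate plates.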

Cell Line	relative viability
201T	0.557
A-427	0.593
ABC-1	0.344
BEN	0.329
CAL-12T	0.261
COR-L23	0.432
COR-L 105	0.374
ChaGo-K-1	0.579
EKVX	0.502
EMC-BAC-2	0.332
EPLC-272H	0.0652
H3255	0.329
HARA	0.26
HCC-15	0.53
HCC-78	0.489
HCC-366	0.614
HCC-827	0.342
HOP-62	0.657

Cell Line	relative viability
LC-2-ad	0.629
LCLC-97TM1	0.748
LCLC-103H	0.411
LK-2	0.209
LOU-NH91	0.553
LU99A	0.443
LXF-289	0.228
NCI-H23	0.605
NCI-H322M	0.314
NCI-H358	0.158
NCI-H441	0.591
NCI-H460	0.439
NCI-H520	0.202
NCI-H522	0.935
NCI-H647	0.175
NCI-H1563	0.412
NCI-H1623	0.514
NCI-H1792	0.861

Same assay, conditions: first compound 0.005 µM

Cell Line	relative viability
201T	0.577
A-427	0.638
ABC-1	0.611
BEN	0.344
CAL-12T	0.333
COR-L23	0.647
COR-L 105	0.455
ChaGo-K-1	0.669
EKVX	0.615
EMC-BAC-2	0.327
H3255	0.404
HARA	0.299
HCC-15	0.617
HCC-78	0.392
HCC-366	0.658
HCC-827	0.218
HOP-62	0.797
LC-2-ad	0.774

Cell Line	relative viability
LCLC-97TM1	0.91
LCLC-103H	0.475
LK-2	0.36
LOU-NH91	0.565
LU99A	0.608
LXF-289	0.236
NCI-H23	0.644
NCI-H322M	0.285
NCI-H358	0.193
NCI-H441	0.726
NCI-H460	0.578
NCI-H520	0.227
NCI-H522	0.876
NCI-H647	0.187
NCI-H1563	0.456
NCI-H1623	0.582
NCI-H1792	0.911

Same assay, conditions: first compound 0.01581 µM

Cell Line	relative viability
201T	0.541
A-427	0.683
BEN	0.289
CAL-12T	0.363
COR-L23	0.477
COR-L 105	0.278
ChaGo-K-1	0.596
EMC-BAC-2	0.31
EPLC-272H	0.305
H3255	0.294
HARA	0.294
HCC-15	0.605
HCC-78	0.375
HCC-827	0.289
HOP-62	0.506
LC-2-ad	0.461

Cell Line	relative viability
LCLC-97TM1	0.768
LCLC-103H	0.403
LK-2	0.322
LOU-NH91	0.468
LU99A	0.537
LXF-289	0.154
NCI-H23	0.539
NCI-H358	0.265
NCI-H460	0.429
NCI-H520	0.206
NCI-H522	0.846
NCI-H596	0.617
NCI-H647	0.119
NCI-H1563	0.447
NCI-H1623	0.559
NCI-H1792	0.819

Same assay, conditions: first compound 0.05 µM

Cell Line	relative viability
201T	0.589
A-427	0.384
ABC-1	0.632
BEN	0.304
CAL-12T	0.349
COR-L23	0.53
COR-L 105	0.258
ChaGo-K-1	0.488
EKVX	0.627
EMC-BAC-2	0.241
EPLC-272H	0.0573
H3255	0.283
HARA	0.124
HCC-15	0.624
HCC-78	0.374
HCC-366	0.647
HCC-827	0.411
HOP-62	0.689
LC-2-ad	0.531

Cell Line	relative viability
LCLC-97TM1	0.825
LCLC-103H	0.152
LK-2	0.266
LOU-NH91	0.657
LU99A	0.483
LXF-289	0.13
NCI-H23	0.269
NCI-H322M	0.269
NCI-H358	0.166
NCI-H441	0.508
NCI-H460	0.362
NCI-H520	0.178
NCI-H522	1.45
NCI-H596	0.233
NCI-H647	0.207
NCI-H1563	0.461
NCI-H1623	0.433
NCI-H1792	1.03

Each cell line was assayed with C[C@@H](C(=O)N[C@@H](C1CCCCC1)C(=O)N2CCC[C@H]2C(=O)N[C@@H]3[C@@H](CC4=CC=CC=C34)OCC#CC#CCO[C@@H]5CC6=CC=CC=C6[C@@H]5NC(=O)[C@@H]7CCCN7C(=O)[C@H](C8CCCCC8)NC(=O)[C@H](C)NC)NC [AZD5582] + O=C(CCCCCCC(=O)Nc1ccccc1)NO [Vorinostat] (partner 1 µM) in the same assay as above. Details: first compound 0.001581 µM.
How it was run: as §1

Cell Line	relative viability
201T	1.05
A-427	0.816
ABC-1	1.22
BEN	0.53
CAL-12T	0.533
COR-L23	0.404
COR-L 105	0.843
ChaGo-K-1	0.718
EKVX	0.72
